Results from the supplement of paper PMC5908809.

Columns and labels:
[1] = system: normal primary NK cells, pool 1 (3 donors) (IL-2 2.5 ng/mL); assay: drug sensitivity score (DSS) (DSS units); higher = more sensitive; extreme values may be limits of the assay; conditions: 72 h
NK-YS (IL-2 2.5 ng/mL) [2] = assay: as above; conditions: 72 h
SNK-6 (IL-2 2.5 ng/mL) [3] = assay: as above; conditions: 72 h
NKL (IL-2 2.5 ng/mL) [4] = assay: as above; conditions: 72 h
[5] = system: normal primary NK cells, pool 3 (3 donors) (IL-2 2.5 ng/mL); assay: as above; conditions: 72 h
[6] = system: normal primary NK cells, pool 1 (3 donors), resting (IL-2 0 ng/mL); assay: as above; conditions: 72 h
KAI3 (IL-2 2.5 ng/mL) [7] = assay: as above; conditions: 72 h
[8] = system: normal primary NK cells, pool 2 (3 donors) (IL-2 2.5 ng/mL); assay: as above; conditions: 72 h
IMC-1 (IL-2 20 ng/mL) [9] = assay: as above; conditions: 72 h
KHYG-1 (IL-2 2.5 ng/mL) [10] = assay: as above; conditions: 72 h
DERL-7 (IL-2 2.5 ng/mL) [11] = assay: as above; conditions: 72 h
YT (IL-2 2.5 ng/mL) [12] = assay: as above; conditions: 72 h
NK-92 (IL-2 2.5 ng/mL) [13] = assay: as above; conditions: 72 h
[14] = system: normal NK cells expanded with K562-aAPC; assay: as above; conditions: 72 h; IL-2 2.5 ng/mL
Method: (§1)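 Drug sensitivity and resistance testing on K562-aAPC-expanded normal NK cells: 5 concentrations (10-fold steps over a 10,000-fold range), 72 h at 37 °C, viability by CellTiter-Glo normalised to DMSO and benzethonium chloride controls; DSS from the fitted curve.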

[15] = system: normal NK cells expanded with K562-aAPC; assay: percent inhibition of viability; higher = more inhibition; conditions: 72 h, IL-2 2.5 ng/mL
Method: as §1

[16] = system: normal primary NK cells, pool 1 (3 donors) (IL-2 2.5 ng/mL); assay: as above; conditions: 72 h
NK-YS (IL-2 2.5 ng/mL) [17] = assay: as above; conditions: 72 h
SNK-6 (IL-2 2.5 ng/mL) [18] = assay: as above; conditions: 72 h
NKL (IL-2 2.5 ng/mL) [19] = assay: as above; conditions: 72 h
[20] = system: normal primary NK cells, pool 3 (3 donors) (IL-2 2.5 ng/mL); assay: as above; conditions: 72 h
[21] = system: normal primary NK cells, pool 1 (3 donors), resting (IL-2 0 ng/mL); assay: as above; conditions: 72 h
KAI3 (IL-2 2.5 ng/mL) [22] = assay: as above; conditions: 72 h
[23] = system: normal primary NK cells, pool 2 (3 donors) (IL-2 2.5 ng/mL); assay: as above; conditions: 72 h
IMC-1 (IL-2 20 ng/mL) [24] = assay: as above; conditions: 72 h
KHYG-1 (IL-2 2.5 ng/mL) [25] = assay: as above; conditions: 72 h
DERL-7 (IL-2 2.5 ng/mL) [26] = assay: as above; conditions: 72 h
YT (IL-2 2.5 ng/mL) [27] = assay: as above; conditions: 72 h
NK-92 (IL-2 2.5 ng/mL) [28] = assay: as above; conditions: 72 h

CC(C)N(CCCNC(=O)Nc1ccc(C(C)(C)C)cc1)C[C@H]1O[C@@H](n2cc(Br)c3c(N)ncnc32)[C@H](O)[C@@H]1O [SGC0946] (max concentration tested 10000 nM)
Conditions | drug sensitivity score
DERL-7 (IL-2 2.5 ng/mL) [11] | 1.92
IMC-1 (IL-2 20 ng/mL) [9] | 0.74
KAI3 (IL-2 2.5 ng/mL) [7] | 4.84
KHYG-1 (IL-2 2.5 ng/mL) [10] | 0.48
NK-92 (IL-2 2.5 ng/mL) [13] | 3.88
NK-YS (IL-2 2.5 ng/mL) [2] | 0.7
NKL (IL-2 2.5 ng/mL) [4] | 1.63
SNK-6 (IL-2 2.5 ng/mL) [3] | 4.92
YT (IL-2 2.5 ng/mL) [12] | 1.23
[1] | 0.32
[5] | 1.29
[6] | 2.93
[8] | 0.89
[14] | 0.11

percent inhibition of viability [%]
Conditions | 1 nM | 10 nM | 100 nM | 1000 nM | 10000 nM
DERL-7 (IL-2 2.5 ng/mL) [26] | 4.94 | 2.4 | 5.77 | 1.04 | 37
IMC-1 (IL-2 20 ng/mL) [24] | -8.07 | -3.94 | -2.69 | 2.99 | 17.2
KAI3 (IL-2 2.5 ng/mL) [22] | 2.28 | -1.4 | -1.58 | 5.53 | 72.2
KHYG-1 (IL-2 2.5 ng/mL) [25] | -5.1 | -1.55 | -1.47 | 1.03 | 17
NK-92 (IL-2 2.5 ng/mL) [28] | -2.74 | -1.7 | 19.9 | 10.5 | 40.7
NK-YS (IL-2 2.5 ng/mL) [17] | -4.5 | -0.39 | 3.77 | -0.01 | 21.5
NKL (IL-2 2.5 ng/mL) [19] | -15 | -7.75 | 4.16 | 0.58 | 33.7
SNK-6 (IL-2 2.5 ng/mL) [18] | -6.32 | -2.25 | 0.17 | 25.4 | 38.7
YT (IL-2 2.5 ng/mL) [27] | -3.26 | -3.19 | 0.56 | 0.95 | 27.2
[15] | -2.37 | -3.94 | 1.95 | 8.9 | 10.9
[16] | 8.37 | -3.22 | 1.91 | -6.49 | 19
[20] | -5.94 | -2.43 | 8.64 | 3.42 | 22.6
[21] | 15.8 | -4.32 | 5.19 | -6.57 | 62.3
[23] | -1.67 | -6.15 | 8.39 | -1.8 | 25.8

CN1CCN(CCOc2cc(OC3CCOCC3)c3c(Nc4c(Cl)ccc5c4OCO5)ncnc3c2)CC1 [Saracatinib] (max concentration tested 10000 nM)
Conditions | drug sensitivity score
DERL-7 (IL-2 2.5 ng/mL) [11] | 6.92
IMC-1 (IL-2 20 ng/mL) [9] | 5.54
KAI3 (IL-2 2.5 ng/mL) [7] | 4.31
KHYG-1 (IL-2 2.5 ng/mL) [10] | 4.35
NK-92 (IL-2 2.5 ng/mL) [13] | 6.22
NK-YS (IL-2 2.5 ng/mL) [2] | 3.64
NKL (IL-2 2.5 ng/mL) [4] | 2.2
SNK-6 (IL-2 2.5 ng/mL) [3] | 0.27
YT (IL-2 2.5 ng/mL) [12] | 7.37
[1] | 2.04
[5] | 0
[6] | 7.66
[8] | 0
[14] | 6.3

percent inhibition of viability [%]
Conditions | 1 nM | 10 nM | 100 nM | 1000 nM | 10000 nM
DERL-7 (IL-2 2.5 ng/mL) [26] | -0.15 | 1.98 | 7.09 | 17.7 | 74.7
IMC-1 (IL-2 20 ng/mL) [24] | -4.77 | -2.25 | -2.36 | -0.89 | 100
KAI3 (IL-2 2.5 ng/mL) [22] | -1.92 | -9.84 | -6.46 | 7.42 | 56.8
KHYG-1 (IL-2 2.5 ng/mL) [25] | -5.13 | -8 | -4.22 | 0.25 | 77.8
NK-92 (IL-2 2.5 ng/mL) [28] | -2.32 | 4.14 | 9.55 | 18.4 | 68.4
NK-YS (IL-2 2.5 ng/mL) [17] | -1.8 | -3.94 | -0.18 | 5.62 | 51.1
NKL (IL-2 2.5 ng/mL) [19] | -14.8 | -18.5 | -9.99 | -5.02 | 48.9
SNK-6 (IL-2 2.5 ng/mL) [18] | -3.28 | -15.1 | -18 | -41.3 | 21.7
YT (IL-2 2.5 ng/mL) [27] | -2.96 | -2.67 | -0.94 | 26.4 | 68.2
[15] | -1.72 | -3.19 | 2.46 | 6.91 | 94.3
[16] | -9.24 | 11.2 | 7.65 | -4.55 | 45.9
[20] | -6.07 | 9.22 | 9.63 | -17.2 | 0.69
[21] | -9.8 | 15.2 | 16.2 | 24 | 85.8
[23] | -0.71 | -2.6 | 6.1 | -10.6 | 9.82
